Laboratory results reported in ChEMBL document CHEMBL4619828, “Discovery of Potent and Orally Bioavailable Small Molecule Antagonists of Toll-like Receptors 7/8/9 (TLR7/8/9)” (ACS Med Chem Lett, 2020).

Molecular target: T1, Toll-like receptor 9 (Mus musculus, UniProt Q9EQU3)
T1 sequence (Q9EQU3 whole entry): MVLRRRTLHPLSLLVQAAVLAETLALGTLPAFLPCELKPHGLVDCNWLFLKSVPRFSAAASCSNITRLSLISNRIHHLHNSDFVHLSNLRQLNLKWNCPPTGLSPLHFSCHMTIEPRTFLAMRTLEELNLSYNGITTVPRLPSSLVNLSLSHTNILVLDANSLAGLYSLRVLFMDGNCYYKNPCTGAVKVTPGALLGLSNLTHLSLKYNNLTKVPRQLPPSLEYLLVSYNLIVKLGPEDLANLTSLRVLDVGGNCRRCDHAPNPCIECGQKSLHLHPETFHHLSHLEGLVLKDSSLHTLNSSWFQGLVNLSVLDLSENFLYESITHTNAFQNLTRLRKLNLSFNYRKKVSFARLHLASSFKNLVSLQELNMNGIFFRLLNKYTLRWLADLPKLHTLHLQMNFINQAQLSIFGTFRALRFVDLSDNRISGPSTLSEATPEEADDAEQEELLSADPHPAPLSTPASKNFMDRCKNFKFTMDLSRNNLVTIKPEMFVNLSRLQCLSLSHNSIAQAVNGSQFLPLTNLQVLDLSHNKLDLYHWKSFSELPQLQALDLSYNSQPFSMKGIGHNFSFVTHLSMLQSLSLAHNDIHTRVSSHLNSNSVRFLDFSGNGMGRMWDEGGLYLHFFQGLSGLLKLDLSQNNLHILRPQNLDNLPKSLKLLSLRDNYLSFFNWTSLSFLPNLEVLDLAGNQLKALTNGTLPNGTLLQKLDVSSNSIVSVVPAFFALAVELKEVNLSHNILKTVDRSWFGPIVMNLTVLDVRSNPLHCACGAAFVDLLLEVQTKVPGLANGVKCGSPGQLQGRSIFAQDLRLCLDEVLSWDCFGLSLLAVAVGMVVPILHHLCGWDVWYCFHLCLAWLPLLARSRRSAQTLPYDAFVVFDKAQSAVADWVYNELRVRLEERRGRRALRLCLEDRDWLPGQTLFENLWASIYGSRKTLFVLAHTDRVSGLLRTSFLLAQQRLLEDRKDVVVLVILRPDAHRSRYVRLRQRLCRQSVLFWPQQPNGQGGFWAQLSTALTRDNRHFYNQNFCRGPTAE
Assay: Antagonist activity at TLR9 in mouse whole blood cells assessed as inhibition of ODN-2216 induced IL-6 production by ELISA
Type: cell-based

Question: `CNCCN1CCC(c2ccc3[nH]c(-c4ccc(OC)c(OC)c4)c(C(C)C)c3c2)CC1` was tested. Which IC50 did it give?
Answer: 510 nM
